# Laboratory results reported in US20210346329A1, “TCA CYCLE INTERMEDIATES AND METHODS OF USE THEREOF” (IMBRIA PHARMACEUTICALS, INC., priority 2018, published 2021).
# Where “and” joins values, the source holds several entries; their conditions need not be identical. Equal entries are not always repeated. Where two headings read alike, the source gives them in different places.
# How the values were obtained:
# [1] = for Dose-normalized AUClast: 100 mg/kg
# From the text: Concentrations versus time data are plotted in FIG. 1 through FIG. 6.
# [2] = for Bioavailability: Oral 50 mg/kg vs IV 10 mg/kg
# Method: Blood samples were collected up to 8 hours post-dose, and plasma concentrations of the test articles were determined by LC-MS/MS. Pharmacokinetic parameters were determined using Phoenix WinNonlin (v8.0) software.
# Plasma samples were extracted and analyzed using the methods described in the section on Sample Extraction. All data are expressed as ng/mL of the free base. Samples that were below the limit of quantification were not used in the calculation of averages.
# Pharmacokinetic parameters were determined with Phoenix WinNonlin (v8.0) software using a non-compartmental model. The maximum plasma concentrations (C0) after IV dosing were estimated by extrapolation of the first two time points back to t=0. The maximum plasma concentration (Cmax) and the time to reach maximum plasma concentration (Tmax) after PO dosing were observed from the data. The area under the time concentration curve (AUC) was calculated using the linear trapezoidal rule with calculation to the last quantifiable data point, and with extrapolation to infinity if applicable. […] Mean residence time, MRT, was calculated by dividing the area under the moment curve (AUMC) by the AUC. Clearance (CL) was calculated from dose/AUC. Steady-state volume of distribution (Vss) was calculated from CL*MRT (mean residence time). Bioavailability was determined by dividing the individual dose-normalized PO AUClast values by the average dose-normalized IV AUClast value. Any samples below the limit of quantitation (1 ng/mL) were treated as zero for pharmacokinetic data analysis.
# Standards were prepared in Sprague-Dawley rat plasma containing sodium heparin as the anticoagulant. Working solutions were prepared in 50:50 acetonitrile:water and then added to the rat plasma to make calibration standards to final concentrations of 2000, 1000, 500, 100, 50.0, 10.0, 5.00, 2.50, and 1.00 ng/mL. Standards were treated identically to the study samples.
# Plasma samples were manually extracted using acetonitrile in a 96-well plate as outlined in Table 15.
# [3] = IV 10 mg/kg, extrapolated to t = 0, mean
# [4] = IV 10 mg/kg, individual Rat 598, 599, 600, 10 mg/kg
# [5] = Oral 50 mg/kg, individual Rat 601, 602, 603, 50 mg/kg
structure (smiles),measurement,setting,value
O=[13C](O)[13CH2][13CH2][13C](=O)O [^13C4-succinate],AUClast,"[1]; SC 100 mg/kg, mean",21630 ng·h/mL
same,AUC∞,"[1]; SC 100 mg/kg, mean",20124 ng·h/mL
same,Cmax,"[1]; SC 100 mg/kg, mean",31000 ± 7451 ng/mL
same,Dose-normalized AUC∞,"[1]; SC 100 mg/kg, mean",201 kg·ng·h/mL/mg
same,MRTlast,"[1]; SC 100 mg/kg, mean",37.7 min
same,t1/2,"[1]; SC 100 mg/kg, mean",64.2 min
same,tmax,"[1]; SC 100 mg/kg, mean",15 min
same,Bioavailability,"[1]; SC 100 mg/kg, mean, vs average IV dose-normalized AUClast",100±24.6%
same,Dose-normalized AUClast,"[1]; SC 100 mg/kg, mean",216 ± 52.9 kg·ng·h/mL/mg
same,Dose-normalized AUClast,"[1]; SC 100 mg/kg, mean, listed as 13C4-Succinate",216 kg·ng·h/mL/mg
same,Change of exposure with increasing dose,"[1]; SC 10, 50 and 100 mg/kg",nonlinear increase in exposure with increasing dose
same,Adverse reactions,"[1]; subcutaneous dosing, 10, 50 and 100 mg/kg",No adverse reactions were observed
same,Plasma concentration,"[2]; IV 10 mg/kg, 0.083 hr, individual Rat 598, 599, 600, 10 mg/kg",8050 ng/mL and 6880 ng/mL and 8410 ng/mL
same,Plasma concentration,"[2]; IV 10 mg/kg, 0.083 hr, mean",7780 ng/mL
same,Plasma concentration,"[2]; IV 10 mg/kg, 0.50 hr, individual Rat 598, 599, 600, 10 mg/kg",91.0 ng/mL and 99.8 ng/mL and 144 ng/mL
same,Plasma concentration,"[2]; IV 10 mg/kg, 0.50 hr, mean",112 ng/mL
same,Plasma concentration,"[2]; IV 10 mg/kg, 1.0 hr, individual Rat 598, 599, 600, 10 mg/kg",27.0 ng/mL and 9.43 ng/mL and 29.5 ng/mL
same,Plasma concentration,"[2]; IV 10 mg/kg, 1.0 hr, mean",22.0 ng/mL
same,Plasma concentration,"[2]; IV 10 mg/kg, 2.0 hr, individual Rat 598, 599, 600, 10 mg/kg",10.3 ng/mL and 9.06 ng/mL and 19.9 ng/mL
same,Plasma concentration,"[2]; IV 10 mg/kg, 2.0 hr, mean",13.1 ng/mL
same,Plasma concentration,"[2]; IV 10 mg/kg, 4.0 hr, individual Rat 598, 599, 600, 10 mg/kg",4.79 ng/mL and 6.25 ng/mL and 6.15 ng/mL
same,Plasma concentration,"[2]; IV 10 mg/kg, 4.0 hr, mean",5.73 ng/mL
same,Plasma concentration,"[2]; IV 10 mg/kg, 8.0 hr, individual Rat 598, 599, 600",BLOQ (BLOQ: below the limit of quantitation (1 ng/mL))
same,tmax,"[2]; IV 10 mg/kg, extrapolated to t = 0, individual Rat 598, 599, 600",0 min
same,C0,"[2]; IV 10 mg/kg, extrapolated to t = 0, individual Rat 598, 599, 600, 10 mg/kg",21947 ng/mL and 21392 ng/mL and 17434 ng/mL
same,C0,[2]; [3],20257 ng/mL
same,tmax,[2]; [3],0 min
same,AUClast,[2]; [4],2215 ng·h/mL and 1958 ng·h/mL and 2291 ng·h/mL
same,AUC∞,[2]; [4],2223 ng·h/mL and 2902 ng·h/mL and 2303 ng·h/mL
same,CL,[2]; [4],75 mL/min/kg and 83.3 mL/min/kg and 72.3 mL/min/kg
same,Dose-normalized AUClast,[2]; [4],221 kg·ng·h/mL/mg and 196 kg·ng·h/mL/mg and 229 kg·ng·h/mL/mg
same,Dose-normalized AUC∞,[2]; [4],222 kg·ng·h/mL/mg and 290 kg·ng·h/mL/mg and 230 kg·ng·h/mL/mg
same,MRTlast,[2]; [4],6.12 min and 5.69 min and 8.4 min
same,Vss,[2]; [4],0.561 L/kg and 1.65 L/kg and 0.735 L/kg
same,t1/2,[2]; [4],75.6 min and 289 min and 78 min
same,AUClast,"[2]; IV 10 mg/kg, mean",2155 ng·h/mL
same,AUC∞,"[2]; IV 10 mg/kg, mean",2176 ng·h/mL
same,CL,"[2]; IV 10 mg/kg, mean",76.8 ± 5.68 mL/min/kg
same,Dose-normalized AUC∞,"[2]; IV 10 mg/kg, mean",218 kg·ng·h/mL/mg
same,MRTlast,"[2]; IV 10 mg/kg, mean",6.78 min
same,Vss,"[2]; IV 10 mg/kg, mean",0.982 ± 0.584 L/kg
same,t1/2,"[2]; IV 10 mg/kg, mean",148 ± 122 min
same,Dose-normalized AUClast,"[2]; IV 10 mg/kg, mean, 10 mg/kg",215 kg·ng·h/mL/mg
same,Dose-normalized AUClast,"[2]; IV 10 mg/kg, mean, listed as 13C4-Succinate, 10 mg/kg",^2Bioavailability determined by dividing the individual oral dose-normalized AUClast values by the average IV dose normalized AUClast value 215 hr*kg*ng/mL/mg from previous study. hr · kg · ng/mL/mg
same,Bioavailability,"[2]; individual Rat 601, 602, 603",0.726% and 0.191% and 1.64%
same,Bioavailability,[2]; mean,0.854±0.735%
same,Plasma concentration,"[2]; Oral 50 mg/kg, 0.50 hr, individual Rat 601, 602, 603, 50 mg/kg",75.4 ng/mL and 27.8 ng/mL and 186 ng/mL
same,Plasma concentration,"[2]; Oral 50 mg/kg, 0.50 hr, mean",96.4 ng/mL
same,Plasma concentration,"[2]; Oral 50 mg/kg, 1.0 hr, individual Rat 601, 602, 603, 50 mg/kg",3.78 ng/mL and 3.00 ng/mL and 5.66 ng/mL
same,Plasma concentration,"[2]; Oral 50 mg/kg, 1.0 hr, mean",4.15 ng/mL
same,Plasma concentration,"[2]; Oral 50 mg/kg, 2.0 hr, individual Rat 601, 602, 603, 50 mg/kg",1.29 ng/mL and BLOQ (BLOQ: below the limit of quantitation (1 ng/mL)) and 2.25 ng/mL
same,Plasma concentration,"[2]; Oral 50 mg/kg, 2.0 hr, mean",1.77 ng/mL
same,Plasma concentration,"[2]; Oral 50 mg/kg, 4.0 hr, individual Rat 601, 602, 603",BLOQ (BLOQ: below the limit of quantitation (1 ng/mL))
same,Plasma concentration,"[2]; Oral 50 mg/kg, 8.0 hr, individual Rat 601, 602, 603",BLOQ (BLOQ: below the limit of quantitation (1 ng/mL))
same,tmax,"[2]; Oral 50 mg/kg, individual Rat 601, 602, 603",15 min
same,AUClast,[2]; [5],78.3 ng·h/mL and 20.6 ng·h/mL and 177 ng·h/mL
same,Cmax,[2]; [5],186 ng/mL and 37.5 ng/mL and 408 ng/mL
same,Dose-normalized AUClast,[2]; [5],1.57 kg·ng·h/mL/mg and 0.411 kg·ng·h/mL/mg and 3.54 kg·ng·h/mL/mg
same,MRTlast,[2]; [5],22.9 min and 24.2 min and 22.7 min
same,AUClast,"[2]; Oral 50 mg/kg, mean",92.0 ng·h/mL
same,Cmax,"[2]; Oral 50 mg/kg, mean",211 ± 186 ng/mL
same,MRTlast,"[2]; Oral 50 mg/kg, mean",23.3 min
same,tmax,"[2]; Oral 50 mg/kg, mean",15 min
same,Dose-normalized AUClast,"[2]; Oral 50 mg/kg, mean, 50 mg/kg",1.84 ± 1.58 kg·ng·h/mL/mg and 1.84 kg·ng·h/mL/mg
same,Time post dosing at which maximum plasma concentrations were observed,[2]; PO 50 mg/kg,15 min
same,Adverse reactions,[2]; intravenous (10 mg/kg) and oral (50 mg/kg) dosing,No adverse reactions were observed
